In patent publication US20250051862A1, “METHODS AND COMPOSITIONS RELATED TO ENGINEERED BIOSENSORS” (priority 2021, published 2025):
≈ marks a conversion by molar mass, not a printed value.

Columns and labels:
[1] = Solubility limit of BIAs in 1% DMSO; type: physicochemical; conditions: used as maximum ligand concentration
Procedure: (a) Transfer functions for all four generations of RamR variants with five different BIAs. The maximum ligand concentration was chosen based on the compound's solubility limit in 1% DMSO, 100 μM for Noscapine and 250 μM for all other BIAs. Fluorescent measurements for each condition were an average of three biological replicates. (b) Background fluorescence measurements for all RamR generations. The same promoter was used to express variants from each evolutionary trajectory (see methods) (c) Orthogonality matrix of all evolved sensors. Fold-response is shown for all BIAs for the native RamR protein, the first, second, third, and fourth generations from top to bottom, respectively. 100 μM of the indicated BIA was applied in all conditions. Measurements for each condition were an average of three biological replicates.

RamR = biological target: T1, RamR (Salmonella typhimurium, UniProt Q8ZR43); test: Biosensor response assay: fluorescence response of multidrug resistance regulators to target BIAs; type: cell-based, Escherichia coli; conditions: E. coli DH10B, pReg + pGFP (sfGFP); glaucine 1 mM, noscapine 100 uM, papaverine 500 uM, rotundine 250 uM, tetrahydropapaverine 1 mM
T1 construct: expressed in transfected cells; host or cells: E. coli DH10B co-transformed with pReg (regulator) and pGFP (reporter)
T1 sequence (Q8ZR43 whole entry, looked up): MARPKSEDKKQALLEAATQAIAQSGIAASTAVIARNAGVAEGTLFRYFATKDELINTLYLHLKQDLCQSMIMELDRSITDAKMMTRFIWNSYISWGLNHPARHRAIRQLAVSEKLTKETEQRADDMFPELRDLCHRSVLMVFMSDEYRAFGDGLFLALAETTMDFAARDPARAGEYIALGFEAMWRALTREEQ
Procedure: To identify a biosensor with some degree of BIA affinity to serve as a suitable scaffold for evolution, the responsiveness of six well characterized multidrug resistance regulators, QacR, TtgR, RamR, SmeT, NalD, and Bm3R1 to the target BIAs were assayed. Regulators were constitutively expressed on one plasmid (pReg) that was co-transformed with another plasmid bearing the regulator's cognate promoter expressing sfGFP (pGFP). Promoters for QacR and TtgR were obtained from the literature while promoters for the remainder were designed by either placing the sensor's operator downstream a medium strength promoter (Bm3R1) or by modifying the −35 or −10 regions of the sensor's native promoter towards the E. coli consensus (NalD, SmeT, RamR) [18*, 18**] if necessary to produce sufficient transcription (FIG. 7a). The ability of each regulator to repress transcription was confirmed by measuring the promoter activity with and without the expression of the cognate sensor via fluorescence (FIG. 7b). […]
Promoters for TtgR and QacR were derived from the literature. […] 100 μL of the cell resuspension for each condition was transferred to a 96 well microtiter plate (Corning, Product #: 3904), from which the fluorescence (Ex: 485 nm, Em: 509 nm) and absorbance ([…]) was measured using the Tecan Infinite M1000 plate reader.

COc1ccc2c(c1OC)C(=O)O[C@@H]2[C@H]1c2c(cc3c(c2OC)OCO3)CCN1C [Noscapine, noscapine]
solubility limit in 1% DMSO [1]: 100 µM (≈ 41.3 µg/mL)

B1: RamR: multidrug resistance regulator from Salmonella typhimurium, template for sensor evolution (protein)
chain: MVARPKSEDKKQALLEAATQAIAQSGIAASTAVIARNAGVAEGTLFRYFATKDELINTLYLHLRQDLCQSLIMELDRSITDAKMMMRFIWNSGISWGLNHPARHRAIRQLAVSEKLTKETHQRDLDMFPELRDILHRRVLMVFMSDEYRAFGDGLFLALAETTMDFAARDPARAGEYIALGFEAMWRALTREEQ
modifications: Description of sequence peptide sensor; Name PAP4; This sensor binds to papaverine
notes: multidrug resistance regulator from Salmonella typhimurium, template for sensor evolution
Fluorescence response to target BIAs (RamR): moderately responsive
